What was measured:
[1] = tested on: Rhodococcus HPPD2; assay: HPPD activity assay, in vitro characterization; type: biochemical; settings: normalized to Hordeum SEQ ID NO:2
Description: (§1) HPPD produces homogentisic acid and CO2 from 4-hydroxyphenylpyruvate (4-HPP) and O2. The activity assay for HPPD is based on the analysis of homogentisic acid by reversed phase HPLC.
(§2) The assay mixture can contain 150 mM potassium phosphate buffer pH 7.0, 50 mM L-ascorbic acid, 100 μM Catalase (Sigma-Aldrich), 1 μM FeSO4 and 0.2 units of purified HPPD enzyme in a total volume of 505 μl. 1 unit is defined as the amount of enzyme that is required to produce 1 nmol of HGA per minute at 20° C.
(§3) After a preincubation of 30 min the reaction is started by adding 4-HPP to a final concentration of 0.05 mM. The reaction is allowed to proceed for 45 min at room temperature. The reaction is stopped by the addition of 50 μl of 4.5 M phosphoric acid. The sample is filtered using a […] pore size PVDF filtration device.
(§4) 5 μl of the cleared sample is analyzed on an UPLC HSS T3 column (particle size 1.8 μm, dimensions 2,1×50 mm; Waters) by isocratic elution using 90% 20 mM NaH2PO4 pH 2.2, 10% methanol (v/v).
(§5) HGA is detected electrochemically at 750 mV (mode: DC; polarity: positive) and quantified by integrating peak areas (Empower software; Waters).
(§6) Inhibitors are dissolved in DMSO (dimethylsulfoxide) to a concentration of 0.5 mM. From this stock solution serial five-fold dilutions are prepared in DMSO, which are used in the assay. The respective inhibitor solution accounts for 1% of the assay volume. Thus, final inhibitor concentrations range from 5 μM to 320 μM, respectively. Activities are normalized by setting the uninhibited enzyme activity to 100%. IC50 values are calculated using non-linear regression.
(§7) Using methods which are described in the above examples or well known in the art, purified, recombinant wildtype HPPD enzymes are characterized with respect to their kinetic properties and sensitivity towards HPPD inhibiting herbicides. Apparent michaelis constants (Km) and maximal reaction velocities (Vmax) are calculated by non-linear regression with the software GraphPad Prism 5 (GraphPad Software, La Jolla, USA) using a substrate inhibition model. Apparent kcat values are calculated from Vmax assuming 100% purity of the enzyme preparation. Weighted means (by standard error) of Km and IC50 values are calculated from at least three independent experiments. The Cheng-Prusoff equation for competitive inhibition (Cheng, Y. C.; Prusoff, W. H. Biochem Pharmacol 1973, 22, 3099-3108) is used to calculate dissociation constants (Ki). • Field performance of the HPPD enzyme, which is used as a herbicide tolerance trait, may depend not only on its lack of sensitivity towards HPPD inhibiting herbicides but also on its activity. To assess the potential performance of a herbicide tolerance trait a tolerance index (TI) is calculated using the following formula: […]
(§8) The reference SEQ ID NO:2 was included as a comparative control in a representative number of experiments and the values given in Table 12 are the average values from a number of experiments. The TI values given for various HPPD enzymes from different organisms are normalized to the value of the reference SEQ ID NO:2.

[2] = tested on: Kordia HPPD; assay: HPPD activity assay, in vitro characterization; type: biochemical; settings: normalized to Hordeum SEQ ID NO:2
Description: as §1, §2, §3, §4, §5, §6, §7, §8

[3] = tested on: Zea mays HPPD mutant Seq ID 69; assay: HPPD activity assay, in vitro characterization; type: biochemical; settings: normalized to Hordeum SEQ ID NO:2
Description: as §1, §2, §3, §4, §5, §6, §7, §8

[4] = tested on: Lolium HPPD; assay: HPPD activity assay, in vitro characterization; type: biochemical; settings: normalized to Hordeum SEQ ID NO:2
Description: as §1, §2, §3, §4, §5, §6, §7, §8

[5] = tested on: Rhodococcus HPPD1; assay: HPPD activity assay, in vitro characterization; type: biochemical; settings: normalized to Hordeum SEQ ID NO:2
Description: as §1, §2, §3, §4, §5, §6, §7, §8

[6] = tested on: Zea mays HPPD mutant Seq ID 67; assay: HPPD activity assay, in vitro characterization; type: biochemical; settings: normalized to Hordeum SEQ ID NO:2
Description: as §1, §2, §3, §4, §5, §6, §7, §8

[7] = tested on: Picrophilus HPPD; assay: HPPD activity assay, in vitro characterization; type: biochemical, Picrophilus torridus; settings: normalized to Hordeum SEQ ID NO:2
Description: as §1, §2, §3, §4, §5
(§9) Inhibitors are dissolved in DMSO (dimethylsulfoxide) to a concentration of 0.5 mM. From this stock solution serial five-fold dilutions are prepared in DMSO, which are used in the assay. […] IC50 values are calculated using non-linear regression. […]

[8] = molecular target: T1, Arabidopsis HPPD (Arabidopsis thaliana, UniProt P93836); assay: HPPD activity assay (homogentisic acid by HPLC), in vitro characterization; type: biochemical; settings: for Normalized tolerance index (TI): Arabidopsis HPPD Wildtype (SEQ ID: 53), reference
T1 construct: His6 (N); made in house; host or cells: E. coli BL21 (DE3)
T1 sequence (P93836 1-445): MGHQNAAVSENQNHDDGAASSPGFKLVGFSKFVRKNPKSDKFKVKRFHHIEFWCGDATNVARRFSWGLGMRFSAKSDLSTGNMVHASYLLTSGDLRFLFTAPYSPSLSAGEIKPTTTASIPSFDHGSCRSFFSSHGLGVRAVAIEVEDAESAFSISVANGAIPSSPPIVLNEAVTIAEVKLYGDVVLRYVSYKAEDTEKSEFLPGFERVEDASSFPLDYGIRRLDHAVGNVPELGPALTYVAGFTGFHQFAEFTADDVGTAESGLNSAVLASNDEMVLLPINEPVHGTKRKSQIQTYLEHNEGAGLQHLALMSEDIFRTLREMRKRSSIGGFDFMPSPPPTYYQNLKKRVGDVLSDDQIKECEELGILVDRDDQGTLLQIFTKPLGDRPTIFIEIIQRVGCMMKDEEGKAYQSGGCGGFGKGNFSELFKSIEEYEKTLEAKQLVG
Description: as §1, §2, §3, §4, §5
as §6, with “Thus, final inhibitor concentrations range from 5 μM to 320 μM, respectively.” left out
(§10) Using methods which are described in the above examples or well known in the art, purified, recombinant wildtype HPPD enzymes are characterized with respect to their kinetic properties and sensitivity towards HPPD inhibiting herbicides. Apparent michaelis constants (Km) and maximal reaction velocities (Vmax) are calculated by non-linear regression with the software GraphPad Prism 5 (GraphPad Software, La Jolla, USA) using a substrate inhibition model. […] Weighted means (by standard error) of Km and IC50 values are calculated from at least three independent experiments. […] To assess the potential performance of a herbicide tolerance trait a tolerance index (TI) is calculated using the following formula: […]

[9] = molecular target: T2, Hordeum HPPD (SEQ ID NO:2) (Hordeum vulgare, UniProt O48604, A164G/R146V/R147D/R148G); assay: HPPD activity assay, in vitro characterization; type: biochemical
T2 construct: subcloned into a modified pET24D (Novagen) expression vector resulting in N-terminally His-tagged expression constructs; His (N); made in house; host or cells: E. coli BL21 (DE3)
T2 sequence (O48604 whole entry R146V/R147D/R148G/A164G): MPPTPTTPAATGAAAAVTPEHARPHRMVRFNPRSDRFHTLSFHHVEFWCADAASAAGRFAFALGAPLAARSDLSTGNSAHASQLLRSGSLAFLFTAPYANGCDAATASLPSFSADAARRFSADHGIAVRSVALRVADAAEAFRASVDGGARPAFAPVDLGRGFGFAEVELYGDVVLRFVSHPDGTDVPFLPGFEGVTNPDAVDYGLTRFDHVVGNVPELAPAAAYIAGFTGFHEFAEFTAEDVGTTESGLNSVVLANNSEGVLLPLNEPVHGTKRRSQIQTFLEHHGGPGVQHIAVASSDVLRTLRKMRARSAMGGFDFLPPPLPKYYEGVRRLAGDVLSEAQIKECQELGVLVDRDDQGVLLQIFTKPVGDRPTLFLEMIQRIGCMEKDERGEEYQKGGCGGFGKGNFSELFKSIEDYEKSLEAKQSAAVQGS
Description: as §1, §2, §3, §4, §5
as §6, with “Thus, final inhibitor concentrations range from 5 μM to 320 μM, respectively.” left out
as §10

[10] = tested on: Avena HPPD; assay: HPPD activity assay, in vitro characterization; type: biochemical, Avena sativa; settings: normalized to Hordeum SEQ ID NO:2
Description: as §1, §2, §3, §4, §5, §9

[11] = Hordeum HPPD Wild-type (SEQ ID NO: 2), reference of Table 16
[12] = Hordeum HPPD, reference, normalized to SEQ ID NO:2

| SMILES | Normalized tolerance index (TI) [1] | Normalized tolerance index (TI) [2] | Normalized tolerance index (TI) [3] | Normalized tolerance index (TI) [4] | Normalized tolerance index (TI) [5] | Normalized tolerance index (TI) [6] | Normalized tolerance index (TI) [7] | Ki [8] | Normalized tolerance index (TI) [8] | TI (tolerance index) ([8]; Arabidopsis HPPD, not normalized) | Ki [9] | Normalized tolerance index (TI) [9, 11] | Normalized tolerance index (TI) [9, 12] | TI (tolerance index) ([9]; Hordeum HPPD, not normalized) | Normalized tolerance index (TI) [10] |
| --- | --- | --- | --- | --- | --- | --- | --- | --- | --- | --- | --- | --- | --- | --- | --- |
| Cn1nnnc1NC(=O)c1c(F)cc(Cl)c(S(C)(=O)=O)c1Cl [Inhibitor 1, 2,4-dichloro-6-fluoro-3-methylsulfonyl-N-(1-methyltetrazol-5-yl)benzamide] | 2.8 | 1.2 | 1.4 | 4.2 | 2.8 | 5 | 2.1 | 15 nM | 1 | 15E−3 | 3.7 nM | 1 | 1 | 1.6E−3 | 2.8 |
| CSc1c(Cl)cc(F)c(C(=O)Nc2ncnn2C)c1Cl [Inhibitor 3, 2,4-dichloro-6-fluoro-3-methylsulfanyl-N-(2-methyl-1,2,4-triazol-3-yl)benzamide] | 12.5 | 3.1 | 0.7 | 1.7 | 0.4 | 3.8 | 0.7 |  | 1 |  |  | 1 | 1 |  | 2.8 |

Reference: US11230717B2, “Plants having increased tolerance to herbicides” (BASF SE, priority 2013, dated 2022)
